Reference: article PMC12603985, “Dissimilar Reactions and Enzymes for Psilocybin Biosynthesis in Inocybe and Psilocybe Mushrooms” (Angewandte Chemie (International Ed. in English), 2025)

How the values were obtained:
Type in all cases: biochemical, Inocybe corydalina
IpsK = system: T1, IpsK; experiment: Michaelis-Menten kinetics of phosphotransfer; conditions: phosphate donor ATP; product assays in TRIS-HCl pH 7.5
T1 construct: N-terminally hexahistidine-tagged; recombinant, purified

IpsD = system: T2, IpsD; experiment: Michaelis-Menten kinetics of decarboxylation; conditions: PLP-dependent
T2 construct: obligate dimer predicted by the model; PLP lysine K300

IpsM1 = system: T3, IpsM1; experiment: Michaelis-Menten kinetics of methyl transfer; conditions: methyl donor SAM; product assays in TRIS-HCl pH 7.5
T3 construct: heterologously produced and purified

IpsM2 = system: T4, IpsM2; experiment: Michaelis-Menten kinetics of methyl transfer; conditions: methyl donor SAM; product assays in TRIS-HCl pH 7.5
T4 construct: heterologously produced and purified

SMILES | Km (IpsK) | Km (IpsD) | Km (IpsM1) | Km (IpsM2)
CN(C)CCc1c[nH]c2cccc(O)c12 [compound 4, psilocin] | 20.5 µM |  |  | 
N[C@@H](Cc1c[nH]c2cccc(O)c12)C(=O)O [compound 7, 4-hydroxy-L-tryptophan] |  | 66 µM |  | 
CNCCc1c[nH]c2cccc(O)c12 [compound 10, 10] | 337 µM |  | 138 µM | 433 µM
NCCc1c[nH]c2cccc(O)c12 [compound 5, 4-hydroxytryptamine] |  |  | 101 µM | 64.5 µM
